Reference: US12186325B2, “Treatment and prevention of premature ejaculation (PE)” (SEROJAC PME Handels GmbH, priority 2018, dated 2025)
Like-named read-outs stand apart in the source and are kept apart here.

Legend:
[1] = cited from earlier work; for peak plasma concentration: healthy volunteers
[2] = system: premature ejaculation (PE); conditions: cited from earlier work
[3] = Case reports: tolerability and side effects in PE patients; assay type: in vivo, human
[4] = system: premature ejaculation (PE); assay: Case reports: intravaginal ejaculation latency time (IELT) in PE patients; assay type: in vivo, human
[5] = cited from earlier work
erectile dysfunction = assay: Case reports: erection / ability to achieve intercourse; assay type: in vivo, human; conditions: Case Report 6; 12 mg yohimbine daily alone, in two doses
Source text: A patient complained about erectile dysfunction and PE.
A patient complained about primary PE and about psychogenic erectile dysfunction.

seminal vesicle = conditions: electrical nerve stimulation (Hsieh et al. 1999); cited from earlier work
male rats = male rats (Shekar et al. 2017); cited from earlier work
aged male rats = conditions: cited from earlier work
[6] = metabolite after oral clomipramine

Question: For `CN(C)CCCN1c2ccccc2CCc2ccc(Cl)cc21` [clomipramine, 3-(3-chloro-10,11-dihydro-5H-dibenzo[b,f]azepin-5-yl)-N,N-dimethylpropan-1-amine], which peak plasma concentration ([1]; single oral dose 50 mg) is on record?
Answer: Its peak plasma concentration is 28.8 ± 11.2 ng/mL.

Question: And the peak plasma concentration ([1]; single oral dose 100 mg)?
Answer: Its peak plasma concentration is 70 to 140 ng/mL.

Question: What about the “time to climax in premature ejaculators” value ([2]; 50 mg clomipramine) of the same molecule?
Answer: Its value is “more than 8 minutes”.

Question: What about the latency to ejaculation ([2]; 25 milligrams clomipramine 12 to 24 hours before sexual activity, from about 1.5 to 2 minutes) of the same molecule?
Answer: Its latency to ejaculation is “about 8 minutes”.

Question: What about the side effects reported ([3]; Case Report 5, 30 mg clomipramine alone 6 hours before sexual intercourse) of the same molecule?
Answer: The side effects reported was “dizziness, dyspepsia and constipation”.

Question: What about the IELT after treatment ([4]; Case Report 5, 30 mg clomipramine alone 6 hours before sexual intercourse, before: 1 minute) of the same molecule?
Answer: The IELT after treatment was 6 min.

Question: Which “outcome of earlier PE treatment” value ([4]; Case Report 2, 50-100 mg for 16 weeks) does the source give for `CN[C@H]1CC[C@@H](c2ccc(Cl)c(Cl)c2)c2ccccc21` [sertraline] here?
Answer: Its value is “unsuccessfully”.

Question: For `COC(=O)[C@@H]1[C@H]2C[C@H]3c4[nH]c5cc(O)ccc5c4CCN3C[C@@H]2CC[C@@H]1O` [11-hydroxy-yohimbine], which “elimination half-life of active metabolite” value ([5]; single-dose yohimbine studies) is on record?
Answer: The value was 6 h.

Question: With `Fc1ccc([C@@H]2CCNC[C@H]2COc2ccc3c(c2)OCO3)cc1` [paroxetine] as the molecule, how does the “outcome of earlier PE treatment” value ([4]; Case Report 1, 20 to 40 mg daily for 6 months) read?
Answer: The value was “unsuccessfully”.

Question: For `COC(=O)[C@@H]1[C@H]2C[C@H]3c4[nH]c5ccccc5c4CCN3C[C@@H]2CC[C@@H]1O` [yohimbine, 17α-hydroxy-yohimban-16α-carboxylic acid methyl ester], which erections (erectile dysfunction) is on record?
Answer: The erections was “improved erections”.

Question: And the “effect on seminal vesicle contractile response” value (seminal vesicle)?
Answer: Its value is “can suppress”.

Question: What about the elimination half-life ([5]; single-dose studies, oral or intravenous) of the same molecule?
Answer: The elimination half-life was < 1 h.

Question: And the “antagonism of clomipramine-induced sexual dysfunction” value (male rats)?
Answer: The value was “failed to antagonize”.

Question: And the “effect on erectile dysfunction” value (aged male rats)?
Answer: Its value is “improves erectile dysfunction”.

Question: What about the side effects reported ([3]; Case Report 6, 12 mg yohimbine daily alone, from the second day of treatment) of the same molecule?
Answer: Its side effects reported is “diarrhoea”.

Question: What about the time of intercourse ([4]; Case Report 6, 12 mg yohimbine daily alone) of the same molecule?
Answer: The time of intercourse was “no amelioration”.

Question: Which results are given for `CNCCCN1c2ccccc2CCc2ccc(Cl)cc21` [desmethylclomipramine]?
Answer: peak plasma concentration of metabolite ([1]; after single oral dose of 50 mg clomipramine): 5.0 ± 1.4 ng/mL; half-life [1, 6]: 36 h; half-life, upper limit in brackets [1, 6]: up to 9 hours
